Positions of bridges follow the written chain, without caps; N, C: chain ends. Non-standard residues stand in square brackets, D forms with d. Residues, ends and D or L forms follow the SMILES beside them. *: point of attachment. Malonyl(2,2-Me2,histaminyl) = CC(C)(C(=O)NCCc1cnc[nH]1)C(=O)*; Ala(1H-tetrazol-5-yl) = N[C@@H](Cc1nnn[nH]1)C(=O)O; αMeL = CC(C)C[C@](C)(N)C(=O)O; Nle = CCCC[C@H](N)C(=O)O; Aib = CC(C)(N)C(=O)O
Legend:
human GLP1 receptor = target: T1, human GLP1 receptor (Homo sapiens, UniProt P43220); assay: cAMP accumulation assay, functional agonism of human GLP1 receptor; assay type: cell-based; conditions: HEK cells infected with human GLP1 receptor BacMam virus, HTRF cAMP; for Emax: HEK293, read-out: Human GLP-1R agonist cAMP Emax; for EC50: read-out: Human GLP-1R agonist cAMP pEC50 (converted)
T1 construct: expressed in transfected cells; host or cells: HEK cells, BacMam virus transduction
T1 sequence (P43220 24-463): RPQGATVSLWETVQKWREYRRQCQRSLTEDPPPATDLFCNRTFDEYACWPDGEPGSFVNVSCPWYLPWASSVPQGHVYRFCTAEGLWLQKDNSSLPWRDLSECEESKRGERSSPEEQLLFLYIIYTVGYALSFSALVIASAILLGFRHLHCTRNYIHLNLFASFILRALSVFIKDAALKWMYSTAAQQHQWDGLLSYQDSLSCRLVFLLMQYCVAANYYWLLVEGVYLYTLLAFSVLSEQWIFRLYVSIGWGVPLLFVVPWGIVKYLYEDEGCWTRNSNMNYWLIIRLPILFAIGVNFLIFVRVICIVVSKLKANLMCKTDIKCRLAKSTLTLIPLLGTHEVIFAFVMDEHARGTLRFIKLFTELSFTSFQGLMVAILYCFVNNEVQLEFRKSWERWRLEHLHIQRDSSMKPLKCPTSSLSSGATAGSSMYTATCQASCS
Method in brief: (§1)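 cAMP read by HTRF detection reagents in lysis buffer following 45 min agonist exposure at 37 °C. Cells: frozen HEK transduced for 24 h with GLP1 or GLP2 receptor BacMam, suspended in HBSS plus 0.5 mM IBMX.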

[1] = Stability of peptides in Fasted-State Simulated Intestinal Fluid (FaSSIF); assay type: in vitro ADME; conditions: FaSSIF with 10 mg/ml pancreatin; t=30 mins, 37° C., pH 6.5, 10 mg/ml pancreatin
human GLP2 receptor = target: T2, human GLP2 receptor (Homo sapiens, UniProt O95838); assay: cAMP accumulation assay, functional agonism of human GLP2 receptor; assay type: cell-based; conditions: HEK cells infected with human GLP2 receptor BacMam virus, HTRF cAMP; for Emax: HEK293, read-out: Human GLP-2R agonist cAMP Emax; for EC50: read-out: Human GLP-2R agonist cAMP pEC50 (converted)
T2 construct: expressed in transfected cells; host or cells: HEK cells, BacMam virus transduction
T2 sequence (O95838 1-553): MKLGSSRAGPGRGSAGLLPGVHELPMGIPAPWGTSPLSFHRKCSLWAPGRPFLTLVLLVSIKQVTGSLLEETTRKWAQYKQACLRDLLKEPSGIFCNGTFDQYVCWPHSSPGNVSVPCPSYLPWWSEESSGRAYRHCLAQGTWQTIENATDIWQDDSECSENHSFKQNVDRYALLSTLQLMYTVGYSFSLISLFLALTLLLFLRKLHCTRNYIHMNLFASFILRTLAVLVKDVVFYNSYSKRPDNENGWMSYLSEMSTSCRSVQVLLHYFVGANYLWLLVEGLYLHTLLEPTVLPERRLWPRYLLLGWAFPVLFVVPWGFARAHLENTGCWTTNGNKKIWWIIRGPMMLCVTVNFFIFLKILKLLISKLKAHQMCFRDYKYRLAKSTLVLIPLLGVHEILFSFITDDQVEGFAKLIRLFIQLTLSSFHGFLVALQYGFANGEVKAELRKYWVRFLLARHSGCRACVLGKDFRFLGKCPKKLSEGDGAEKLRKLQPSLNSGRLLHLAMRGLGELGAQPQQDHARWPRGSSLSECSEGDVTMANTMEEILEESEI
Method in brief: as §1

mouse GLP2 receptor = target: T3, mouse GLP2 receptor (Mus musculus, UniProt Q5IXF8); assay: cAMP accumulation assay, functional agonism of mouse GLP2 receptor; assay type: cell-based; conditions: HEK cells transiently transfected with mouse GLP2 receptor, HTRF cAMP; for Emax: HEK293, read-out: Mouse GLP-2R agonist cAMP Emax; for EC50: read-out: Mouse GLP-2R agonist cAMP pEC50 (converted)
T3 construct: expressed in transfected cells; host or cells: HEK cells, transient transfection with GeneJuice
T3 sequence (Q5IXF8 1-512): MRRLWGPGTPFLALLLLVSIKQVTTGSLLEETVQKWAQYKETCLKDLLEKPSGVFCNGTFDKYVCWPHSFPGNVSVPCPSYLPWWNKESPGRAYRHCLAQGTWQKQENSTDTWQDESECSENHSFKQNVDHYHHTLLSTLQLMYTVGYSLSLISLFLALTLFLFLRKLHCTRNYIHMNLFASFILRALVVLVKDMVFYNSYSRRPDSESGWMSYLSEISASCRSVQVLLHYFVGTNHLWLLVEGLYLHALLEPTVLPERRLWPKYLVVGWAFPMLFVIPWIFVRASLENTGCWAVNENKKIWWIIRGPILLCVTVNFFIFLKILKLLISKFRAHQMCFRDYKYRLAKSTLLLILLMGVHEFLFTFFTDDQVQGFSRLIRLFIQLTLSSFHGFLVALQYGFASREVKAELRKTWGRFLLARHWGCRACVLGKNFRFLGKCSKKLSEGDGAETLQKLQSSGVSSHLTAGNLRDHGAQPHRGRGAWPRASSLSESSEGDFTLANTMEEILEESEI
Method in brief: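 pEC50 values come from four-parameter fits of HTRF cAMP signal, read after lysis and 1 h RT incubation. Compounds were incubated 45 min at 37 °C with previously frozen, transiently transfected HEK cells (8000/well) in HBSS containing 0.5 mM IBMX.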

| Emax (human GLP1 receptor) | EC50 (human GLP1 receptor) | remaining at 0.5 h [1] | Emax (human GLP2 receptor) | EC50 (human GLP2 receptor) | Emax (mouse GLP2 receptor) | EC50 (mouse GLP2 receptor) | Compound |
| --- | --- | --- | --- | --- | --- | --- | --- |
| 95.3% | 0.251 nM | 22.3% | 105% | 0.0794 nM |  |  | CCCC[C@@H]1NC(=O)[C@H](CCC(=O)O)NC(=O)[C@@H](NC(=O)[C@H](CO)NC(=O)[C@H](Cc2ccccc2)NC(=O)[C@H](CO)NC(=O)CNC(=O)[C@H](Cc2nn[nH]n2)NC(=O)C(C)(C)C(=O)NCCc2c[nH]cn2)CCCCNC(=O)C[C@@H](C(=O)N[C@@](C)(CC(C)C)C(=O)N[C@@H](CC(C)C)C(=O)N[C@@H](CC(=O)O)C(=O)N[C@H]2CCC(=O)NCCCC[C@@H](C(=O)N[C@@H](CC(=O)O)C(=O)N[C@@H](Cc3ccccc3)C(=O)N[C@H](C(=O)N[C@@H](CC(N)=O)C(=O)N[C@@H](Cc3c[nH]c4ccccc34)C(=O)N[C@@H](CC(C)C)C(=O)N[C@H](C(=O)N[C@@H](CCC(N)=O)C(=O)N[C@H](C(=O)N[C@H]3CCC(=O)NCCCC[C@@H](C(N)=O)NC(=O)[C@H]([C@@H](C)O)NC(=O)[C@H]([C@@H](C)CC)NC3=O)[C@@H](C)O)[C@@H](C)CC)[C@@H](C)CC)NC(=O)[C@H](C)NC(=O)[C@H](C)NC(=O)[C@H](CCCCN)NC2=O)NC(=O)[C@@H](Cc2ccccc2)NC1=O [Example 11] ({Malonyl(2,2-Me2,histaminyl)}-[Ala(1H-tetrazol-5-yl)]GSFSKE[Nle][dF]D[αMeL]LDEKAAKDFINWLIQTEITK-NH2; lactam 6-10, 14-18, 28-31 (inferred); C-terminus assumed) |
| 97.3% | 0.251 nM |  | 103% | 0.0316 nM | 74.2% | 3.16 nM | CCCC[C@H](NC(=O)[C@H](CCC(=O)O)NC(=O)[C@@H]1CCCCNC(=O)CC[C@H](NC(=O)[C@H](Cc2nn[nH]n2)NC(=O)C(C)(C)C(=O)NCCc2c[nH]cn2)C(=O)N[C@@H](CO)C(=O)N[C@@H](Cc2ccccc2)C(=O)N[C@@H](CO)C(=O)N1)C(=O)N[C@H](Cc1ccccc1)C(=O)N[C@H]1CCC(=O)NCCCC[C@@H](C(=O)N[C@H]2CCCCNC(=O)C[C@@H](C(=O)N[C@@H](Cc3ccccc3)C(=O)N[C@H](C(=O)N[C@H]3CCC(=O)NCCCC[C@@H](C(=O)N[C@H]4CCCCNC(=O)CC[C@@H](C(N)=O)NC(=O)[C@H]([C@@H](C)O)NC(=O)[C@H]([C@@H](C)CC)NC(=O)[C@H](CCCCN)NC4=O)NC(=O)[C@H]([C@@H](C)CC)NC(=O)[C@H](CC(C)C)NC(=O)[C@H](Cc4c[nH]c5ccccc45)NC3=O)[C@@H](C)CC)NC(=O)[C@H](CCCCN)NC(=O)[C@H](C)NC(=O)[C@H](C)NC2=O)NC(=O)[C@H](CC(=O)O)NC(=O)[C@H](CC(C)C)NC(=O)[C@H]([C@@H](C)CC)NC1=O [Example 79] ({Malonyl(2,2-Me2,histaminyl)}-[Ala(1H-tetrazol-5-yl)]ESFSKE[Nle][dF]EILDKKAAKDFIEWLIKKKITE-NH2; lactam 2-6, 10-14, 15-19, 22-26, 27-31 (inferred); C-terminus assumed) |

The next lines start with the molecule.

| Compound | Emax (human GLP1 receptor) | EC50 (human GLP1 receptor) | remaining at 0.5 h [1] | Emax (human GLP2 receptor) | EC50 (human GLP2 receptor) | Emax (mouse GLP2 receptor) | EC50 (mouse GLP2 receptor) |
| --- | --- | --- | --- | --- | --- | --- | --- |
| CCCC[C@@H]1NC(=O)[C@H](CCC(=O)O)NC(=O)[C@@H](NC(=O)[C@H](CO)NC(=O)[C@H](Cc2ccccc2)NC(=O)[C@H](CO)NC(=O)CNC(=O)[C@H](CC(=O)O)NC(=O)C(C)(C)NC(=O)[C@@H](N)Cc2c[nH]cn2)CCCCNC(=O)C[C@@H](C(=O)N[C@H](C(=O)N[C@@H](CC(C)C)C(=O)N[C@@H](CC(=O)O)C(=O)N[C@H]2CCC(=O)NCCCC[C@@H](C(=O)N[C@@H](CC(=O)O)C(=O)N[C@@H](Cc3ccccc3)C(=O)N[C@H](C(=O)N[C@@H](CC(N)=O)C(=O)N[C@@H](Cc3c[nH]c4ccccc34)C(=O)N[C@@H](CC(C)C)C(=O)N[C@H](C(=O)N[C@@H](CCC(N)=O)C(=O)N[C@H]3CCC(=O)NCCCC[C@@H](C(N)=O)NC(=O)[C@H]([C@@H](C)O)NC(=O)[C@H]([C@@H](C)CC)NC(=O)[C@H](CCCCN)NC3=O)[C@@H](C)CC)[C@@H](C)CC)NC(=O)[C@H](C)NC(=O)[C@H](C)NC(=O)[C@H](CCCCN)NC2=O)[C@@H](C)CC)NC(=O)[C@@H](Cc2ccccc2)NC1=O [Example 4] (H-H[Aib]DGSFSKE[Nle][dF]DILDEKAAKDFINWLIQEKITK-NH2; lactam 8-12, 16-20, 29-33 (inferred); C-terminus assumed) | 94.7% | 0.501 nM | 4.3% | 103% | 0.01 nM |  |  |
| CCCC[C@@H]1NC(=O)[C@H](CCC(=O)O)NC(=O)[C@@H](NC(=O)[C@H](CO)NC(=O)[C@H](Cc2ccccc2)NC(=O)[C@H](CO)NC(=O)CNC(=O)[C@H](Cc2nn[nH]n2)NC(=O)C(C)(C)C(=O)NCCc2c[nH]cn2)CCCCNC(=O)C[C@@H](C(=O)N[C@H](C(=O)N[C@@H](CC(C)C)C(=O)N[C@@H](CC(=O)O)C(=O)N[C@H]2CCC(=O)NCCCC[C@@H](C(=O)N[C@@H](CC(=O)O)C(=O)N[C@@H](Cc3ccccc3)C(=O)N[C@H](C(=O)N[C@@H](CC(N)=O)C(=O)N[C@@H](Cc3c[nH]c4ccccc34)C(=O)N[C@@H](CC(C)C)C(=O)N[C@H](C(=O)N[C@@H](CCC(N)=O)C(=O)N[C@H](C(=O)N[C@H]3CCC(=O)NCCCC[C@@H](C(N)=O)NC(=O)[C@H]([C@@H](C)O)NC(=O)[C@H]([C@@H](C)CC)NC3=O)[C@@H](C)O)[C@@H](C)CC)[C@@H](C)CC)NC(=O)[C@H](C)NC(=O)C(C)(C)NC(=O)[C@H](CCCCN)NC2=O)[C@@H](C)CC)NC(=O)[C@@H](Cc2ccccc2)NC1=O [Example 12] ({Malonyl(2,2-Me2,histaminyl)}-[Ala(1H-tetrazol-5-yl)]GSFSKE[Nle][dF]DILDEK[Aib]AKDFINWLIQTEITK-NH2; lactam 6-10, 14-18, 28-31; C-terminus assumed) | 94.5% | 0.251 nM | 10.7% | 105% | 0.0501 nM |  |  |
| CCCC[C@H](NC(=O)[C@H](CCC(=O)O)NC(=O)[C@H](CC(=O)O)NC(=O)[C@H](CO)NC(=O)[C@H](Cc1ccccc1)NC(=O)[C@H](CO)NC(=O)CNC(=O)[C@H](CC(=O)O)NC(=O)C(C)(C)NC(=O)[C@@H](N)Cc1c[nH]cn1)C(=O)N[C@H](Cc1ccccc1)C(=O)N[C@H](C(=O)N[C@H](C(=O)N[C@@H](CC(C)C)C(=O)N[C@@H](CC(=O)O)C(=O)N[C@H]1CCCCNC(=O)CC[C@@H](C(=O)N[C@@H](CC(=O)O)C(=O)N[C@@H](Cc2ccccc2)C(=O)N[C@H](C(=O)N[C@@H](CC(N)=O)C(=O)N[C@@H](Cc2c[nH]c3ccccc23)C(=O)N[C@@H](CC(C)C)C(=O)N[C@H](C(=O)N[C@@H](CCC(N)=O)C(=O)N[C@H](C(=O)N[C@@H](CCCCN)C(=O)N[C@H](C(=O)N[C@H](C(=O)N[C@@H](CC(=O)O)C(N)=O)[C@@H](C)O)[C@@H](C)CC)[C@@H](C)O)[C@@H](C)CC)[C@@H](C)CC)NC(=O)[C@H](C)NC(=O)[C@H](C)NC(=O)[C@H](CCCCN)NC1=O)[C@@H](C)CC)[C@@H](C)O [Example 102] (H-H[Aib]DGSFSDE[Nle][dF]TILDKKAAEDFINWLIQTKITD-NH2; lactam 16-20; N-terminus and C-terminus assumed) | 99.3% | 20 nM |  | 101% | 0.00126 nM | 99% | 0.02 nM |

From US20240270809A1, “ORAL GLP RECEPTOR AGONISTS” (priority 2020, published 2024)
